These results are taken from ChEMBL document CHEMBL3507680, “University of Dundee, Gates Library screen for HepG2 cell viability”.

A short description of the data set: Human HepG2 cell viability assay in 384 well format. Conditions: HepG2 cells, read-out: Inhibition. The arrangement: dose 125 nL, time 70.5 hour; concentration not given beside the values. The data set is classed as toxicity, cell-based.
Turning to `CC(C)c1nc2c(n1C)CCN(Cc1nc(-c3ccoc3)no1)C2`, the cytotoxicity at 70.5 h is -4.46%.

Take `COc1cccc(Nc2nc(N3CCCC3)nc3c2CNCC3)c1`: the cytotoxicity at 70.5 h was 43.7%.

As to `Cc1csc(CN2C[C@@H]3CN(C)CCO[C@@H]3C2)n1`, the cytotoxicity at 70.5 h was -3.79%.

Take `COc1ccc(CN2CCn3cc(CN4CCCCC4)nc3C2)cc1`: the cytotoxicity at 70.5 h was determined as 29.5%.

With `c1cnc(N2CCO[C@H]3CN(CC4CCCC4)C[C@H]32)cn1`, the cytotoxicity at 70.5 h came out at 2.36%.

On to `Cc1nn(C)cc1NC(=O)CC1CCN(CCc2ccccc2)CC1`, for which the cytotoxicity at 70.5 h is -7.48%.

Consider `COc1cc2c(cc1CN1CCCCC1CN1CCOCC1)CCC2` (configuration not stated), for which the cytotoxicity at 70.5 h was found to be 1.06%.

`CC(=O)N1CCNCC1c1cccc(C(=O)N(C)C)c1` (configuration not stated): the cytotoxicity at 70.5 h is -8.36%.

Turning to `Cc1ncc2c(n1)CN(CC(=O)Nc1ccc(Cl)cn1)CC2`, the cytotoxicity at 70.5 h was -13.8%.

For `O=C(c1ccccn1)N1CCC2(CCCN(c3nncs3)C2)C1` (configuration not stated), the cytotoxicity at 70.5 h is -9.42%.

As for `Cn1cc(-c2nc(C3CCN(CC4CC4)CC3)cc3c2ncn3C)cn1`, the cytotoxicity at 70.5 h is -1.1%.

Turning to `Cc1cc(C)cc(OCC(=O)N2CCC2)c1`, the cytotoxicity at 70.5 h was -22.1%.

As for `COc1ccccc1OC1CN(C(=O)CN(C)Cc2ccncc2)C1`, the cytotoxicity at 70.5 h is -14.2%.

Consider `O=C(CCCc1ccccn1)NCC(O)c1ccccc1Cl` (configuration not stated), for which the cytotoxicity at 70.5 h was 3.77%.

In the case of `COCCCN1CCCCC12CC(=O)N(Cc1ccccn1)C2` (configuration not stated), the cytotoxicity at 70.5 h was -1.98%.

For the compound `CCN(CC)C(=O)c1ccc(Cl)c(NC(=O)c2cc[nH]n2)c1`, the cytotoxicity at 70.5 h came to 13.3%.

On to `Cc1cc(C(=O)NCC2OCCc3cn(CC4CC4)nc32)c(C)[nH]1` (configuration not stated), for which the cytotoxicity at 70.5 h is -3.07%.

Regarding `CNc1cc(N2CCCC2CNCc2cscn2)ncn1` (configuration not stated), the cytotoxicity at 70.5 h amounted to 1.05%.

Consider `CC(NC1(CNC(=O)C(C)(C)C#N)CCOCC1)c1ccccc1` (configuration not stated), for which the cytotoxicity at 70.5 h is 15.5%.

Turning to `CCn1nc(C)c2ccn(CC(=O)NC3CCCC3)c(=O)c21`, the cytotoxicity at 70.5 h is -1.39%.

For `O=C(c1ccc(C2CCCO2)s1)N1CCS(=O)(=O)CC1` (configuration not stated), the cytotoxicity at 70.5 h was -8.51%.

Take `Cc1cc(C)n(CCCNC(=O)NCc2c(C)cc(C)[nH]c2=O)n1`: the cytotoxicity at 70.5 h came to 2.42%.

For `Cc1ccc(C(C(=O)NCc2cc(C)[nH]n2)N(C)C)cc1` (configuration not stated), the cytotoxicity at 70.5 h is -8.58%.

On to `Cc1cccc2nc(CNC(=O)N3CCC(N4CC=CC4)C3)cn12` (configuration not stated), for which the cytotoxicity at 70.5 h is -14.4%.

Turning to `Cc1ccc2nc(C)c(C)c(C(=O)NCCCn3cnnc3)c2c1`, the cytotoxicity at 70.5 h is -2.61%.

`CN1CCN(C(=O)[C@H]2CC[C@@H]3[C@@H](CCN3Cc3ccsc3)O2)CC1`: the cytotoxicity at 70.5 h is -6.96%.

For `CC(C)N1C(=O)CO[C@H]2CCN(C(=O)c3ccc4c(c3)CCC4)CC[C@@H]21`, the cytotoxicity at 70.5 h was -3.57%.

Regarding `O=C([C@@H]1C[C@@H]2CCN(C3CCOCC3)C[C@H]2O1)N1CCOCC1`, the cytotoxicity at 70.5 h was -0.695%.

For `CC(=O)Nc1ccc(CN2CCc3[nH]cnc3C2c2nccn2C)cc1` (configuration not stated), the cytotoxicity at 70.5 h is -3.14%.

With `Cc1ccsc1C(=O)N1C[C@@H]2CN(Cc3ccoc3)CCO[C@@H]2C1`, the cytotoxicity at 70.5 h is -1.7%.

For `COc1nc(C)ccc1CNC(=O)NC(c1ncc(C)s1)C1CC1` (configuration not stated), the cytotoxicity at 70.5 h is -2.73%.

With `CCC(O)CN1CCN(C(=O)c2sccc2C2CC2)CC1` (configuration not stated), the cytotoxicity at 70.5 h is -2.13%.

Turning to `O=C1CCCN1CCCC(=O)N1CCCC(Cc2cccnc2)C1` (configuration not stated), the cytotoxicity at 70.5 h was -4.43%.

For `COc1ncccc1NC(=O)c1[nH]nc(C(C)C)c1Br`, the cytotoxicity at 70.5 h is -8.6%.

For `CCc1nn2c(=N)c(C#N)n[nH]c2c1-c1ccc(OC)cc1`, the cytotoxicity at 70.5 h was -18.3%.

On to `Cc1cnn(CCC(=O)N2CCN(c3nccs3)CC2)c1`, for which the cytotoxicity at 70.5 h amounted to 17.7%.

Turning to `Cn1nc(CN2CCCCC2)c2c1CN(C(=O)c1ccoc1)C2`, the cytotoxicity at 70.5 h was found to be 16.5%.

Take `Cc1cnn(CC(=O)N2CCCN(Cc3cnn(C(C)C)c3)CC2)c1`: the cytotoxicity at 70.5 h was -0.435%.

As to `CN1CCCN(C(=O)c2nc3c(o2)CN(C(=O)c2cccnc2)C3)CC1`, the cytotoxicity at 70.5 h was -1.59%.

Regarding `CCN1CCC(NC(=O)CN2CCc3c(ncn3C3CC3)C2)CC1`, the cytotoxicity at 70.5 h was -9.11%.

Take `CCN(CCn1cccn1)Cc1nc(-c2ccoc2)oc1C`: the cytotoxicity at 70.5 h is 14%.

Consider `O=C(C1CCOCC1)N1C[C@H](OCc2cccnc2)[C@H]2COC[C@H]21`, for which the cytotoxicity at 70.5 h was -5.49%.

Take `Cc1cc(C)n(-c2cncc(N3CCN(C(=O)C(C)C)CC3)n2)n1`: the cytotoxicity at 70.5 h was -4.92%.

Turning to `Cc1ccc(CC(=O)NC(C)C(=O)N2CCS(=O)(=O)CC2)cc1` (configuration not stated), the cytotoxicity at 70.5 h was -2.68%.

Take `c1cnc2nc(N3CCCC3c3nnc4n3CCCCC4)ccc2n1` (configuration not stated): the cytotoxicity at 70.5 h is -4.33%.

For the compound `O=C(c1ccccc1)N1CCCN(C(=O)c2ncncc2Cl)CC1`, the cytotoxicity at 70.5 h was found to be 15.9%.

In the case of `Cc1nn2cc(CCNC(=O)c3cc(C(C)C)no3)nc2s1`, the cytotoxicity at 70.5 h was found to be 12.6%.

Consider `CCn1nc(C)cc1C(=O)OCCNC(=O)c1ccccc1`, for which the cytotoxicity at 70.5 h is -0.786%.

`COC[C@@]12CCO[C@@H]1CCN(C(=O)C1CC(F)(F)C1)C2`: the cytotoxicity at 70.5 h is -11.5%.

As for `O=C(c1cccnc1)N1CCCC1C1CCN(Cc2ccccc2)CC1` (configuration not stated), the cytotoxicity at 70.5 h was -13.7%.

With `CCN(C)S(=O)(=O)NCC1CCCN(Cc2ccccc2F)C1` (configuration not stated), the cytotoxicity at 70.5 h is -4.79%.

As to `NC(=O)CCOc1ccc(NC(=O)c2ccccc2OC(F)F)cc1`, the cytotoxicity at 70.5 h was 3.32%.

As to `c1ccc2c(c1)CCN2c1nc(N2CCOCC2)c2nn[nH]c2n1`, the cytotoxicity at 70.5 h was found to be 32.9%.

With `COc1cccc(CN2CC3(CCNCC3)CCC2=O)c1OC`, the cytotoxicity at 70.5 h worked out at 0.619%.

Take `COCC1CN(Cc2csc(C)n2)Cc2nccn2C1` (configuration not stated): the cytotoxicity at 70.5 h was 2.98%.

With `Cc1noc(C)c1CCCNC(=O)Nc1ccc2c(c1)CC(=O)N2`, the cytotoxicity at 70.5 h is -8.94%.

As for `O=C(NCc1ccco1)[C@H]1C[C@@H]2CCN(c3ccncn3)C[C@@H]2O1`, the cytotoxicity at 70.5 h is -5.88%.

`CCS(=O)(=O)N1CC[C@H]2O[C@H](c3nc(C)no3)CC[C@H]21`: the cytotoxicity at 70.5 h is -14.9%.

Consider `COc1cc(NC(=O)NCC2CCCO2)cc(OC)c1` (configuration not stated), for which the cytotoxicity at 70.5 h stood at 16.9%.

Consider `COc1ccc(-c2csc(N)c2C#N)cc1`, for which the cytotoxicity at 70.5 h was -24.3%.

Turning to `CC(C)CCN1CCCC12Cc1ccccc1CNC2=O` (configuration not stated), the cytotoxicity at 70.5 h is -7.7%.

In the case of `COCC(=O)N1C[C@@H]2OCCN(Cc3c(C)noc3C)[C@@H]2C1`, the cytotoxicity at 70.5 h was -11.4%.

Regarding `CC(C)c1ccc(-n2cc(O)c(C(=O)N3CCC(C(N)=O)CC3)n2)cc1`, the cytotoxicity at 70.5 h came out at 0.806%.

With `COc1ccc(Cl)cc1CNCCCn1ccnc1`, the cytotoxicity at 70.5 h was -2.31%.

On to `COC(=O)c1ccc(N2CCN(CCS(C)(=O)=O)C(C)C2)cc1` (configuration not stated), for which the cytotoxicity at 70.5 h was -3.48%.

With `Cn1nccc1C(=O)N1CCC2(CC1)COC(COc1ccccn1)C2` (configuration not stated), the cytotoxicity at 70.5 h is -11.2%.

As to `CCCNC(=O)Cn1cc(C#N)c(=O)c2cc(Br)ccc21`, the cytotoxicity at 70.5 h was -8.09%.

Consider `COc1cccc2c1OCC(C(=O)N(C)CCCc1cnn(C)c1)C2` (configuration not stated), for which the cytotoxicity at 70.5 h is -1.77%.

With `CCn1cc(C(=O)N2CCOCC2)cn1`, the cytotoxicity at 70.5 h is -3.04%.

For the compound `CCc1cc(C(=O)N2CC[C@@H](c3ccc4ccccc4c3)[C@H](O)C2)[nH]n1`, the cytotoxicity at 70.5 h was 35%.

Regarding `CCOC(=O)N1CCN(C(=O)c2snnc2-c2ccccc2)CC1`, the cytotoxicity at 70.5 h is -9.63%.

On to `Cc1nn(C)c(C)c1C1CCCN1CCOc1cccc(C#N)c1` (configuration not stated), for which the cytotoxicity at 70.5 h was -3.95%.

For `CCc1nnsc1C(=O)N1CCCC(n2nc(C)nc2C)C1` (configuration not stated), the cytotoxicity at 70.5 h was -3.17%.

With `c1ccc(-c2cc(CN3C[C@H]4CC[C@H]3C4)on2)cc1`, the cytotoxicity at 70.5 h was -4.67%.

Take `COCCNCc1ccc(OCC(=O)NC(C)(C)C)cc1`: the cytotoxicity at 70.5 h came out at 19.6%.

For the compound `O=C(CN1CCCC1COc1ccccc1)NCc1ccccn1` (configuration not stated), the cytotoxicity at 70.5 h is -10.9%.

For `Cc1nn(C)c(C)c1C1CCCN1C(=O)CCNS(C)(=O)=O` (configuration not stated), the cytotoxicity at 70.5 h is -5.69%.

With `CC(C)CN1CC2(CCN(C(=O)c3cn4cccnc4n3)CC2)CC1=O`, the cytotoxicity at 70.5 h is -17.9%.

For `Cc1ccc(OC2(C(=O)O)CCN(C(=O)c3cc(C)oc3C)CC2)cn1`, the cytotoxicity at 70.5 h stood at 4.69%.

In the case of `Cn1cnc(NC(=O)C2CC(=O)N(c3cccc(F)c3)C2)n1` (configuration not stated), the cytotoxicity at 70.5 h came out at 18.3%.

For `Cc1nc(CN2CCCC(N(C)Cc3nc(CC(C)C)no3)C2)no1` (configuration not stated), the cytotoxicity at 70.5 h was -9.14%.

Turning to `COc1ccc(C2CCCN2c2ccnc(C)c2Cl)c(OC)c1` (configuration not stated), the cytotoxicity at 70.5 h came out at 33.7%.

In the case of `CO[C@H]1C[C@@H](O)C12CCN(CCCOc1ccc(C(N)=O)cc1)CC2`, the cytotoxicity at 70.5 h is -2.22%.

As for `c1ccc2c(c1)CN(c1ncnc3sc4c(c13)CCNC4)CCO2`, the cytotoxicity at 70.5 h was 0.0341%.

`CC(C)[C@H](NS(C)(=O)=O)C(=O)NCc1cc(-c2ccco2)nn1C`: the cytotoxicity at 70.5 h came to 7.38%.

`CNC(=O)C(C)(C)N1CCC[C@H]1C(=O)NCCN(C)C`: the cytotoxicity at 70.5 h was -16.8%.

As for `COCCN1CCc2onc(C(c3ccccc3)c3ccccc3)c2C1`, the cytotoxicity at 70.5 h is -8.42%.

On to `O=C(CNCc1ccccc1Cn1cccn1)Nc1cnccn1`, for which the cytotoxicity at 70.5 h is -9.54%.

Regarding `O=C1NC(c2ccccc2)=N[C@@]12CC[C@@H]1CN(Cc3ccoc3)C[C@@H]12`, the cytotoxicity at 70.5 h was -3.26%.

As for `O=C(COC[C@H]1CC[C@H]2[C@H](CCN2c2ccccn2)O1)N1CCCC1`, the cytotoxicity at 70.5 h is -111%.

With `Cc1noc(C)c1-c1ccnc(C2CCN(S(=O)(=O)N(C)C)CC2)c1`, the cytotoxicity at 70.5 h is -2.76%.

In the case of `COc1ccc(N)c(N2CCN(C(C)=O)CC2)n1`, the cytotoxicity at 70.5 h is -11%.

As for `c1cc(CN2CCc3ncc(CN4CCOCC4)n3CC2)cs1`, the cytotoxicity at 70.5 h worked out at 16.8%.

On to `O=C(N1CCOCC1)[C@@]12CCO[C@@H]1CCN(C1CCCCC1)C2`, for which the cytotoxicity at 70.5 h was 47.3%.

As to `O=C1Nc2ccccc2C12CCCN(Cc1ccncc1)C2` (configuration not stated), the cytotoxicity at 70.5 h is -10.6%.

For `CC(=O)Nc1ccc(C(=O)Nc2cnc3n2CCCC3)cc1C`, the cytotoxicity at 70.5 h is 5.91%.

Regarding `CNS(=O)(=O)c1ccc(CNC(=O)C2CCCN(C)C2)cc1` (configuration not stated), the cytotoxicity at 70.5 h is -6.65%.
